# Source: patent publication US6420416B2, “Method of treating epilepsy” (Daiichi Pharmaceutical Co., Ltd., priority 2000, dated 2002)
# System: rats subjected to a central fluid percussion injury
# Experiment: Morris water maze after central fluid percussion injury (traumatic brain injury model)
# Type: in vivo, rat
# Experimental: As shown in the graph, administration of nefiracetam at 3 mg/kg and 9 mg/kg were tested against a control group treated only with the pharmacological carrier ([…]). The rats were subjected to a central fluid percussion injury, which is a typical animal model for traumatic brain injury. Beginning one day after the injury, the rats were subjected to daily oral drug administrations at the 3 and 9 mg/kg dosage levels. The administration solutions contained the nefiracetam in […] at a concentration sufficient to provide the required dosage level in a single 1 ml/kg dosage of solution. The rats were then tested in the Morris water maze on days 11-15 after injury. On the days that the rats were tested, the drug was administered 15 minutes prior to testing. […] The improvement seen at the 9 mg/kg dosage correlates to a reduction in the cognitive deficit by 55% compared to the control.
compound,measurement,setting,value
"Cc1cccc(C)c1NC(=O)CN1CCCC1=O [nefiracetam, N-(2,6-dimethyl-phenyl)-2(2-oxo-1-pyrrolidinyl)acetamide]",effectiveness in the water maze,"3 mg/kg daily oral, days 11-15 after injury",not significantly effective
same,reduction in the cognitive deficit compared to the control,"9 mg/kg daily oral from one day after injury, Morris water maze on days 11-15 after injury, drug 15 minutes prior to testing",55%
same,improvement in brain function as measured by performance in the water maze,"9 mg/kg daily oral, compared to the control and the 3 mg/kg dosage level, days 11-15 after injury",significant improvement
